Patent publication US20040086886A1, “Polymorphisms associated with cardiac arrythmia” (priority 2003, published 2004)
pKi: −log10 of the molar value.

How the values were obtained:
[1] = molecular target: wild type MiRP1/HERG channels (Homo sapiens, UniProt Q12809+Q9Y6J6); test: cell-based
[2] = molecular target: wild type MiRP1/HERG channels (Homo sapiens, UniProt Q12809); test: cell-based; conditions: Ki (equilibrium inhibition constant), wild type MiRP1
I57T-MiRP1/HERG channels = I57T-MiRP1/HERG channels (Homo sapiens, UniProt Q12809); test: cell-based
Q9E-MiRP1 channels = Q9E-MiRP1 channels (Homo sapiens, UniProt Q12809+Q9Y6J6, Q9E); conditions: Abbott et al. (1999); cited from earlier work
Chain of Q9E-MiRP1 channels (Q9Y6J6 whole entry Q9E): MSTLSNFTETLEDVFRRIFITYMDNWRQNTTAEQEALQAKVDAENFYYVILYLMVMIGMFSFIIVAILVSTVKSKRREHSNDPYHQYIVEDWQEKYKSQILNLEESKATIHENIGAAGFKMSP
Chain of Q9E-MiRP1 channels (Q12809 whole entry): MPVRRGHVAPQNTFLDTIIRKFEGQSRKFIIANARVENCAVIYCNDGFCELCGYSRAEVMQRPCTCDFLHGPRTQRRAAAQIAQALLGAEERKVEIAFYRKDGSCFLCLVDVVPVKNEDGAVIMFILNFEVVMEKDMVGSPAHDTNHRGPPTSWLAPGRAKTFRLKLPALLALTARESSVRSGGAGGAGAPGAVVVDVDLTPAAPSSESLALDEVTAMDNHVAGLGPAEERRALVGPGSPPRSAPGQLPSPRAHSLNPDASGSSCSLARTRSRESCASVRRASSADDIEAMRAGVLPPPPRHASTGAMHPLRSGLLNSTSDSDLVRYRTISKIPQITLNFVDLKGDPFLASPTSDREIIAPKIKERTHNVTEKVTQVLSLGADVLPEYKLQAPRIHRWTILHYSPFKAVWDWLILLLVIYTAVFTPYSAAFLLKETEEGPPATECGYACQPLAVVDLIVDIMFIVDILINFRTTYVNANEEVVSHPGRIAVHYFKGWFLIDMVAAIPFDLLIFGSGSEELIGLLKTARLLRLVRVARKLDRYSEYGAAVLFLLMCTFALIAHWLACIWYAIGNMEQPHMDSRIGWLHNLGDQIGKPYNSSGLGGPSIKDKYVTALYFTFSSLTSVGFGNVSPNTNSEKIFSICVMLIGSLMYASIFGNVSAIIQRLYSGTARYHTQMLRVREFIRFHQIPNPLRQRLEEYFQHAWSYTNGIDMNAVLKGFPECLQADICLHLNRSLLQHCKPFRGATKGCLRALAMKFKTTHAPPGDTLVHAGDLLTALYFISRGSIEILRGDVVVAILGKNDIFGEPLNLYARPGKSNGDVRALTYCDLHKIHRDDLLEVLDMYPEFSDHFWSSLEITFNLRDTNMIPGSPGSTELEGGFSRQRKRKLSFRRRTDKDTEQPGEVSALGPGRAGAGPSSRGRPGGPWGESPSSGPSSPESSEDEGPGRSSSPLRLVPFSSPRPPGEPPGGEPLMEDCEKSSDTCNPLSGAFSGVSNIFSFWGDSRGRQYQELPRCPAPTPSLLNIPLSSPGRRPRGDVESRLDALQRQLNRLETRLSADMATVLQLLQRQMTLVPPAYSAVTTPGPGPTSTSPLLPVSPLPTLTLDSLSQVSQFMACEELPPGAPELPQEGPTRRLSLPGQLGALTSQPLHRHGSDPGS

Chain of wild type MiRP1/HERG channels (Homo sapiens, UniProt Q12809+Q9Y6J6) (Q12809 whole entry): as above
Chain of wild type MiRP1/HERG channels (Homo sapiens, UniProt Q12809+Q9Y6J6) (Q9Y6J6 whole entry): as the sequence (Q9Y6J6 whole entry Q9E) above, with E9Q counted along it
Chain of wild type MiRP1/HERG channels (Homo sapiens, UniProt Q12809) (Q12809 whole entry): as the sequence (Q12809 whole entry) above
Chain of wild type MiRP1/HERG channels (Homo sapiens, UniProt Q12809) (Q9Y6J6 whole entry, further chain): as the sequence (Q9Y6J6 whole entry Q9E) above, with E9Q counted along it
Chain of I57T-MiRP1/HERG channels (Q12809 whole entry): as the sequence (Q12809 whole entry) above
Chain of I57T-MiRP1/HERG channels (Q9Y6J6 whole entry I57T, further chain): as the sequence (Q9Y6J6 whole entry Q9E) above, with E9Q, I57T counted along it

For `O=c1[nH]c2ccccc2n1CCCN1CCN(C(c2ccccc2)c2ccccc2)CC1` [oxatomide], the “Level for half-maximal inhibition relative to plasma (therapeutic) levels in patients” value [1] was “close to their therapeutic concentrations”, the pKi [2] was 6.37 and the pKi (I57T-MiRP1/HERG channels) was 5.73.

In the case of `CC[C@H]1OC(=O)[C@H](C)[C@@H](O[C@H]2C[C@@](C)(OC)[C@@H](O)[C@H](C)O2)[C@H](C)[C@@H](O[C@@H]2O[C@H](C)C[C@H](N(C)C)[C@H]2O)[C@](C)(OC)C[C@@H](C)C(=O)[C@H](C)[C@@H](O)[C@]1(C)O` [clarithromycin], the “Sensitivity of Q9E-MiRP1 channels to drug inhibition relative to wild type” value (Q9E-MiRP1 channels) is given as “three-fold more sensitive”.
